Here are results for two molecules from PMC6151550, “Inhibitory Effect of Selaginellins from Selaginella tamariscina (Beauv.) Spring against Cytochrome P450 and Uridine 5′-Diphosphoglucuronosyltransferase Isoforms on Human Liver Microsomes” (Molecules : A Journal of Synthetic Chemistry and Natural …, 2017).

What all share (format): in vitro ADME
The target of series [1] is T1, UGT1A4 (Homo sapiens, UniProt P22310).
T1 construct: from tissue; host or cells: human liver microsomes
T1 sequence (P22310 29-534): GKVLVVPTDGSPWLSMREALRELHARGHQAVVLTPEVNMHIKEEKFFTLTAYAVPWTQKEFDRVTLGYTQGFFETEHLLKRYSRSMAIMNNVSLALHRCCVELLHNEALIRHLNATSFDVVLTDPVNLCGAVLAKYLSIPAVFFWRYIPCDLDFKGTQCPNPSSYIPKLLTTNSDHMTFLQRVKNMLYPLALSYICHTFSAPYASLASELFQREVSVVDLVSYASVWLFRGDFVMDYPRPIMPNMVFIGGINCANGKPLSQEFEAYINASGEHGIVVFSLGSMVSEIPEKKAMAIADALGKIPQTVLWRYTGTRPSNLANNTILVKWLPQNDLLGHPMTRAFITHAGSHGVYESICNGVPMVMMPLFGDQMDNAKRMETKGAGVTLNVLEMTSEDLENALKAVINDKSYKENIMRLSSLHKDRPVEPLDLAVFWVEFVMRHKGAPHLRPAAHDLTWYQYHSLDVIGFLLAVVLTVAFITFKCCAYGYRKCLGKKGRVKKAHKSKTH
The series is described as follows: UGT1A4 inhibition (trifluoperazine glucuronidation) in human liver microsomes, cocktail LC-MS/MS. The procedure: The inhibitory effects of two selaginellins on the metabolism of six UGT probe substrates were evaluated using previously reported method with minor modification. In brief, HLMs (0.25 mg/mL) were activated by incubation in the presence of alamethicin (25 μg/mL) for 15 min on ice. After the addition of UGT isoform-selective substrates and selaginellins (0, 0.5, 2, 5, 20 and 50 μM) the final concentrations of organic solvent (methanol) for the cocktail incubation conditions were 1.0% (v/v). The incubation reaction mixtures were pre-incubated for 5 min. The reaction was initiated by the addition of 5 mM UDPGA and further incubated for 60 min. All reactions were terminated by adding ice-cold acetonitrile containing estrone glucuronide (IS). After mixing and centrifugation, aliquots were injected into a LC-MS/MS as described previously (Table 2). All microsomal incubations were performed in triplicate.
The IC50 values (concentration of the inhibitor causing 50% inhibition of the original enzyme activity) were calculated using WinNonlin software (Pharsight, Mountain View, CA, USA): percentage of control activity = 100 × [1 − (I/(I + IC50))], where I is the inhibitor concentration, and IC50 is the inflection point on the curve.
(Liver microsomes are a subcellular fraction often used to study metabolism.)

Series [2] addresses T2, CYP2C8 (Homo sapiens, UniProt P10632).
T2 construct: the incubation mixtures containing pooled HLMs (0.25 mg/mL, H2630, Xenotech); tissue Xenotech H2630; host or cells: pooled human liver microsomes
T2 sequence (P10632 1-490): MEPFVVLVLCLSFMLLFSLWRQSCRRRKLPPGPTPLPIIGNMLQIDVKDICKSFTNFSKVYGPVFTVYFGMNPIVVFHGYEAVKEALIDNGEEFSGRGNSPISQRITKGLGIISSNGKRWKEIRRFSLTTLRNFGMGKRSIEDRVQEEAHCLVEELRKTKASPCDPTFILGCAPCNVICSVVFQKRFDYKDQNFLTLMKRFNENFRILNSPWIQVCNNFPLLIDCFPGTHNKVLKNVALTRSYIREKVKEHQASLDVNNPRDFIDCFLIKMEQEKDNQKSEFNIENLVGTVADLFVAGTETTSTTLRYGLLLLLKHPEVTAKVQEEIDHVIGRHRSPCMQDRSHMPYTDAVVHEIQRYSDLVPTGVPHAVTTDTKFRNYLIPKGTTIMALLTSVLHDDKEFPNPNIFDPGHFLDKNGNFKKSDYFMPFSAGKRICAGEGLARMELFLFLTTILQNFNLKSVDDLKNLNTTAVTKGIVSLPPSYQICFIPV
In words: CYP2C8 inhibition (amodiaquine N-deethylase) in human liver microsomes, substrate cocktail LC-MS/MS. The procedure:
The inhibitory effects of two selaginellins on the metabolism of ten P450 probe substrates were evaluated using previously reported method with minor modification. Phenacetin O-deethylase, coumarin 7-hydroxylase, bupropion 4-hydroxylase, amodiaquine N-deethylase, tolbutamide 4-hydroxylase, omeprazole 5-hydroxylase, dextromethorphan O-demethylase, chlorzoxazone 6-hydroxylase and midazolam 1′-hydroxylase activities were determined as probe activities for CYP1A2, CYP2A6, CYP2B6, CYP2C8, CYP2C9, CYP2C19, CYP2D6, CYP2E1 and […], respectively, using substrate cocktail incubation and tandem mass spectrometry (Table 2). Selaginellins were dissolved in methanol. The final concentrations of organic solvent (methanol) for the cocktail incubation conditions in all experiments were 1.0% (v/v). In brief, the incubation mixtures containing pooled HLMs (0.25 mg/mL, H2630, Xenotech), P450 probe substrate cocktail, and inhibitor (0, 0.5, 2, 5, 20 and 50 μM) were preincubated at 37 °C for 5 min. The reaction was initiated by adding of the NADPH generating system (3.3 mM G6P, 1.3 mM β-NADP+, 3.3 mM MgCl2, and 1 unit/mL G6PDH) followed by incubation for 15 min at 37 °C. Next, each incubation was stopped by addition of 50 μL ice-cold acetonitrile containing terfenadine (IS). After mixing and centrifugation, aliquots were analyzed by liquid chromatography-tandem mass spectrometry (LC-MS/MS) as previous described. The CYP2J2 inhibitory effects of two selaginellins were also evaluated in pooled HLMs using previously reported method. In brief, the incubation reaction mixtures contained 0.25 mg/mL HLMs, astemizole (1 μM) and inhibitor (0.5–50 μM) in […] phosphate buffer (pH 7.4). The reaction was initiated by the addition of NADPH-generating system and further incubated for 15 min. After reaction termination with cold acetonitrile containing 5 ng/mL terfenadine and centrifugation, aliquots were injected into a liquid chromatography-tandem mass spectrometry system (LC-MS/MS) as described previously (Table 2). All microsomal incubations were performed in triplicate. […]

The target in series [3] is T3, CYP2J2 (Homo sapiens, UniProt P51589).
T3 construct: from tissue; host or cells: pooled human liver microsomes
T3 sequence (P51589 1-502): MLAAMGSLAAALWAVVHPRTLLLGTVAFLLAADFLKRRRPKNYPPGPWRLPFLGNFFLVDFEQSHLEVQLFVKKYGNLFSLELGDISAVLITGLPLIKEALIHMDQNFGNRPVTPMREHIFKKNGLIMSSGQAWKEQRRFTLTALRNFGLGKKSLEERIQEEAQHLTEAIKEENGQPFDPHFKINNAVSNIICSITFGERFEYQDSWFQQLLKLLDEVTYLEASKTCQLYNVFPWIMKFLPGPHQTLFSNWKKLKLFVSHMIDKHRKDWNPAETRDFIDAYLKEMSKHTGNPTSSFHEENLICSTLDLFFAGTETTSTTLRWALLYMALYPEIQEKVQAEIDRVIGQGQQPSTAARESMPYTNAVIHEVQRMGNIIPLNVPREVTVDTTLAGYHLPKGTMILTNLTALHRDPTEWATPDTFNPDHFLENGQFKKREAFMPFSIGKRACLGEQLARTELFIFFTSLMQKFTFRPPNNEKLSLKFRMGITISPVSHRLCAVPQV
The series is described as follows: CYP2J2 inhibition (astemizole O-demethylation) in pooled human liver microsomes, LC-MS/MS. The following applies: IC50 P450 isoform 2J2, pooled HLMs 0.25 mg/mL, astemizole 1.0 μM. The protocol: The inhibitory effects of two selaginellins on the metabolism of ten P450 probe substrates were evaluated using previously reported method with minor modification. Phenacetin O-deethylase, coumarin 7-hydroxylase, bupropion 4-hydroxylase, amodiaquine N-deethylase, tolbutamide 4-hydroxylase, omeprazole 5-hydroxylase, dextromethorphan O-demethylase, chlorzoxazone 6-hydroxylase and midazolam 1′-hydroxylase activities were determined as probe activities for CYP1A2, CYP2A6, CYP2B6, CYP2C8, CYP2C9, CYP2C19, CYP2D6, CYP2E1 and […], respectively, using substrate cocktail incubation and tandem mass spectrometry (Table 2). Selaginellins were dissolved in methanol. The final concentrations of organic solvent (methanol) for the cocktail incubation conditions in all experiments were 1.0% (v/v). In brief, the incubation mixtures containing pooled HLMs (0.25 mg/mL, H2630, Xenotech), P450 probe substrate cocktail, and inhibitor (0, 0.5, 2, 5, 20 and 50 μM) were preincubated at 37 °C for 5 min. […] After mixing and centrifugation, aliquots were analyzed by liquid chromatography-tandem mass spectrometry (LC-MS/MS) as previous described. The CYP2J2 inhibitory effects of two selaginellins were also evaluated in pooled HLMs using previously reported method. […]

With `COc1ccc(C(=C2C=CC(=O)C=C2)c2c(-c3ccc(O)cc3)ccc(CO)c2C#Cc2ccc(O)cc2)cc1` [Selaginellin M], the half-maximal inhibitory concentration (IC50) is 3900 nM in series [1], 900 nM in series [2] and 2700 nM in series [3].
In the case of `O=C1C=CC(=C(c2ccc(O)cc2)c2c(-c3ccc(O)cc3)ccc(CO)c2C#Cc2ccc(O)cc2)C=C1` [Selaginellin], the figures for the IC50 in series [1], in series [2] and in series [3] were 6600 nM, 500 nM and 800 nM, respectively. Moreover, in series [2] (human liver microsomes, class by Krippendorff's criteria), the “inhibitory potential for CYP2C8-mediated amodiaquine O-demethylation (class)” value was “high (high (IC50 < 1 μM))”.

Broadly, the IC50 is the concentration that gives 50% inhibition. Low values mean greater potency, high ones weaker potency.
